Assay results as given in US20160095343A1, “Synbiotic Product” (Tate & Lyle Ingredients Americas LLC, priority 2010, published 2016).

Columns and labels:
Format in all cases: cell-based
[1] = tested on: B. coagulans strain GBI-30; test: Comparison of maximum growth of B. coagulans on various carbohydrates (Example 2); settings: carbohydrate at ~10 g/L, against no added carbohydrates
From the text: The maximum growth of probiotic B. coagulans strain GBI-30 (ATCC Designation Number PTA-6086; U.S. Pat. No. 6,849,256) (Ganeden Biotech, Inc.; Mayfield Heights, Ohio) was compared on the carbohydrates arabinoxylan, xylose, and dextrose at ˜10 g/L and against addition of no carbohydrates (FIG. 2).

B. licheniformis = test: Growth of probiotic Bacillus on prebiotic carbohydrates (Example 1); settings: carbohydrate at 10 g/L
Method: (§1) Four commercial spore-forming probiotic Bacillus strains were grown on prebiotic carbohydrates at 10 g/L. (See FIG. 1). The four strains were B. pumilus, B. licheniformis, B. subtilis, and B. coagulans. The prebiotic carbohydrates were high molecular weight arabinoxylan (AX), xylose (X), soluble fiber dextrin (waxy) (SFDw), soluble corn fiber (85) (SCF), and polydextrose (PDX). As a measure of the significance of the data shown in FIG. 1, Table 1 indicates P values for the B. coagulans data.

B. pumilus = test: as above; settings: carbohydrate at 10 g/L
Method: as §1

B. coagulans = test: as above; settings: carbohydrate at 10 g/L
Method: as §1

B. subtilis = test: as above; settings: carbohydrate at 10 g/L
Method: as §1

With `O=C[C@H](O)[C@@H](O)[C@H](O)CO` [xylose] the “maximum growth of B. coagulans strain GBI-30 on the carbohydrate” value [1] was “strong growth”, the “growth of B. licheniformis on the prebiotic carbohydrate” value (B. licheniformis) was “limited growth” and the “growth of B. pumilus on the prebiotic carbohydrate” value (B. pumilus) was “did not appear able to grow”. For the same compound, the “growth of B. coagulans on the prebiotic carbohydrate” value (B. coagulans) was “grew” and the “growth of B. subtilis on the prebiotic carbohydrate” value (B. subtilis) was “grew”.
